Laboratory results as given in US20260085073A1, “PYRAZOLYLCARBOXAMIDE COMPOUNDS AND THEIR USE IN THERAPY” (Hotspot Therapeutics, Inc., priority 2022, published 2026).

Target: T1, MALT1 (Homo sapiens, UniProt Q9UDY8)
T1 construct: Avi-tagged FL MALT-1 (Pharmaron, stored at −70° C.); Avi-tag
T1 sequence (Q9UDY8 1-824): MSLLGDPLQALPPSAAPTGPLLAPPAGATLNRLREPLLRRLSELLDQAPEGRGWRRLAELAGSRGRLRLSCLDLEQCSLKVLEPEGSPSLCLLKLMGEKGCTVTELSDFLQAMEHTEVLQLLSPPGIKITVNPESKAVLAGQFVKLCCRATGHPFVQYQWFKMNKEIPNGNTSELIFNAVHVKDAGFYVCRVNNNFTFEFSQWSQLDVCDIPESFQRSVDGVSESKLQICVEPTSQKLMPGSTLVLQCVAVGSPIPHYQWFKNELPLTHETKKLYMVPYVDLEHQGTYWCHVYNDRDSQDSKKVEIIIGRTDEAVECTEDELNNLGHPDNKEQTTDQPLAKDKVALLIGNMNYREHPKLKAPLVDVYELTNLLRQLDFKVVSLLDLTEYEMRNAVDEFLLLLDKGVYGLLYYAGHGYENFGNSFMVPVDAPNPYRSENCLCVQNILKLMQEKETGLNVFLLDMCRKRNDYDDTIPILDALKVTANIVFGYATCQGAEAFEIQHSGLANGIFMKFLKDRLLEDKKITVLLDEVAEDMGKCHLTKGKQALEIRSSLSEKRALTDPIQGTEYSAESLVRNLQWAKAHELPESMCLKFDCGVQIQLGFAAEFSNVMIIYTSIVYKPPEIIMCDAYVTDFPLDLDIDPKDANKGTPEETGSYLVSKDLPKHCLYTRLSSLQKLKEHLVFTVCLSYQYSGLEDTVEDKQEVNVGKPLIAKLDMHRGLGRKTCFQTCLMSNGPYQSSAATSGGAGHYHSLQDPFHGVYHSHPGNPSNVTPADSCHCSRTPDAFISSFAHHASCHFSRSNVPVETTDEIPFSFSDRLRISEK
Assay: MALT1 inhibition assay (MALT-1 Fluorogenic Peptide Cleavage Assay, Ac-LRSR-AMC substrate)
Type: biochemical
Settings: Avi-tagged FL MALT-1, 30 min pre-incubation, 90 min reaction at room temperature, fluorescence intensity
Description: Example 71—MALT1 Inhibition Assay
Compounds were tested for ability to bind to MALT1.
Inhibition of MALT1 activity by the presence of small molecules was evaluated using MALT-1 Fluorogenic Peptide Cleavage Assay. The assay utilizes a quenched AMC-labelled peptide that contains the MALT-1 recognition sequence and cleavage site (LRSR). MALT-1 mediated cleavage of the peptide relieves the quenching and leads to an increase in fluorescence at excitation (342 nm) and emission (441 nm).
The following reagents were obtained commercially and used to prepare standard reagent formulations as further described below: N-2-hydroxyethylpiperazine-N-2-ethane sulfonic acid (HEPES) (1 M, pH 7.5, stored at 4° C.), sodium citrate (stored at RT), tris(2-carboxyethyl) phosphine hydrochloride (T-CEP) (500 mM, stored at −20° C.), ethylenediaminetetraacetic acid (EDTA) (500 mM, stored at RT), dimethylsulfoxide (DMSO, stored at RT), 3-[(3-cholamidopropyl)dimethylammonio]-1-propane sulphate (CHAPS) (stored at RT), dimethylsulfoxide (DMSO), DMSO (Fisher Scientific, stored at RT), Avi-tagged FL MALT-1 (Pharmaron, stored at −70° C.), Ac-LRSR-AMC Peptide (SM Biochemicals, stored at −20° C.), and ultrapure water (MILLI-QR).
The standard reagent formulations used in this assay were prepared and stored as follows. A 1.1 M solution of sodium citrate (161.3 g, 500 mL) was prepared and stored at room temperature. A 10% (w/v) CHAPS solution (2.0 g, 20 mL) was prepared and stored at 4° C. A 500 mM HEPES solution having pH of 6.89 was prepared from 200 mL of a 1 M HEPES solution having a pH of 7.5 using concentrated hydrochloric acid and brought to a final volume of 400 mL with MILLI-QR H2O. The substrate, 10 mM Ac-LRSR-AMC Peptide, was prepared (10 mg, 1.370 mL DMSO) and stored at −20° C.
Compounds were plated to provide a 2% DMSO final concentration using a ProxiPlate-384 Plus F Black 384-shallow well microplate. The assay-ready plates were equilibrated to room temperature. A reaction buffer (30 mL total volume) was prepared by combining HEPES (pH 6.89, 25 mM, 1.5 mL), sodium citrate (660 mM, 18.0 mL), T-CEP (1 mM, 0.06 mL), EDTA ([…], 0.06 mL), CHAPS (0.05%, 0.15 mL), DMSO (2%, 0.6 mL), and MILLI-QR H2O (10.23 mL; 9.63 mL when backfilled to 2% DMSO) followed by thorough mixing. DMSO was added only when compound plates had not been DMSO-backfilled to 2%.
MALT-1 was thawed and kept on ice. Peptide substrate was thawed on the bench under ambient conditions. A MALT-1 enzyme working stock was prepared from Avi-tagged FL MALT-1 (40 nM in a prepared reagent volume of 16.5 μL) and the reaction buffer (13.0 mL). MALT1 working stock (5 μL) was added to each well of the microplate. MALT-1 was pre-incubated with compounds for 30 minutes at room temperature.
Two substrate working stocks (Km and 10×Km) were prepared. The 1×Km substrate was prepared from Ac-LRSR-AMC Peptide (50 μM in a prepared reagent volume of 35.0 μL) and the reaction buffer (6.965 mL). The 10×Km substrate was prepared from Ac-LRSR-AMC Peptide (280 μM in a prepared reagent volume of 196.0 μL) and the reaction buffer (6.804 mL). The reaction was initiated by the addition of substrate working stock (5 μL, 50 μM) to Km plates and the addition of substrate working stock (5 μL 280 μM) to 10×Km plates. The plates were covered and incubated on the bench at room temperature for 90 minutes.
Fluorescence intensity was determined using a CLARIOstar microplate reader (BMG LABTECH) using the optimised AMC mode. Before taking readings, a 70% gain was applied on the neutral control well. Compound data were normalised to % Inhibition and used to plot sigmoidal concentration response curves to yield various parameters including IC50.

SMILES | IC50 [nM]
Cn1nc(-c2cccc3c2CCO3)c(C(F)(F)F)c1C(=O)Nc1ccnc(C(F)(F)F)c1 [Compound I-91] | 500 to 2500
Cn1nc(-c2cc(OC3COC3)ccc2Cl)c(C(F)(F)F)c1C(=O)Nc1ccnc(C(F)(F)F)c1 [Compound I-93] | 500 to 2500
Cn1nc(-c2cccc3c2COC3)c(C(F)(F)F)c1C(=O)Nc1ccnc(C(F)(F)F)c1 [Compound I-95] | 500 to 2500
CN1Cc2c(cccc2-c2nn(C)c(C(=O)Nc3ccnc(C(F)(F)F)c3)c2C(F)(F)F)C1=O [Compound I-98] | > 10000
CC(=O)Nc1cc(-c2nn(C)c(C(=O)Nc3ccnc(C(F)(F)F)c3)c2C(F)(F)F)ccn1 [Compound I-100] | > 10000
Cn1cc(-c2nn(C)c(C(=O)Nc3ccnc(C(F)(F)F)c3)c2C(F)(F)F)c(C2CC2)n1 [Compound I-103] | 2500 to 10000
COc1cc(-c2nn(C)c(C(=O)Nc3ccnc(C(F)(F)F)c3)c2C(F)(F)F)c2scnc2c1 [Compound I-104] | > 10000
Cn1nc(-c2nccc3ncsc23)c(C(F)(F)F)c1C(=O)Nc1ccnc(C(F)(F)F)c1 [Compound I-107] | > 10000
Cn1nc(-c2nccn3ccnc23)c(C(F)(F)F)c1C(=O)Nc1ccnc(C(F)(F)F)c1 [Compound I-111] | 500 to 2500
Cn1nc(-c2cccc3nncn23)c(C(F)(F)F)c1C(=O)Nc1ccnc(C(F)(F)F)c1 [Compound I-118] | 2500 to 10000
Cn1nc(-c2csc3cnccc23)c(C(F)(F)F)c1C(=O)Nc1cnc(-n2nccn2)c(C(F)(F)F)c1 [Compound I-120, N-(6-(2H-1,2,3-triazol-2-yl)-5-(trifluoromethyl)pyridin-3-yl)-1-methyl-3-(thieno[2,3-c]pyridin-3-yl)-4-(trifluoromethyl)-1H-pyrazole-5-carboxamide] | < 500
Cn1nc(-c2cccc3ncccc23)c(C(F)(F)F)c1C(=O)Nc1cnc(-n2nccn2)c(C(F)F)c1 [Compound I-121] | < 500
Cn1nc(-c2cccc3ncccc23)c(C(F)(F)F)c1C(=O)Nc1cnc(-n2nccn2)c(C(F)(F)F)c1 [Compound I-122] | < 500
Cn1nc(-c2cccc3ncn(C4CC4)c23)cc1C(=O)Nc1ccnc(C(F)(F)F)c1 [Compound I-123] | > 10000
Cn1nc(-c2cccc3ncsc23)c(C(F)(F)F)c1C(=O)Nc1cnc(-n2nccn2)c(C(F)(F)F)c1 [Compound I-125] | < 500
Cn1nc(-c2cccc3ncsc23)c(C(F)(F)F)c1C(=O)Nc1cnc(-n2nccn2)c(Cl)c1 [Compound I-126] | < 500
Cn1nc(-c2cccc3ccoc23)c(C(F)(F)F)c1C(=O)Nc1cnc(-n2nccn2)c(C(F)(F)F)c1 [Compound I-127] | < 500

Second part, the molecule after the results:

IC50 [nM] | SMILES
< 500 | Cn1nc(-c2cccn3nccc23)c(C(F)(F)F)c1C(=O)Nc1ccnc(C(F)(F)F)c1 [Compound I-87]
< 500 | COc1ccccc1-c1nn(C)c(C(=O)Nc2ccnc(C(F)(F)F)c2)c1C(F)(F)F [Compound I-88]
500 to 2500 | Cn1nc(-c2cccc(Cl)c2Cl)c(C(F)(F)F)c1C(=O)Nc1ccnc(C(F)(F)F)c1 [Compound I-89]
500 to 2500 | Cn1nc(-c2csc3ncccc23)c(C(F)(F)F)c1C(=O)Nc1ccnc(C(F)(F)F)c1 [Compound I-90]
< 500 | Cn1nc(-c2csc3ccccc23)c(C(F)(F)F)c1C(=O)Nc1ccnc(C(F)(F)F)c1 [Compound I-92]
< 500 | Cn1nc(-c2cccc3scnc23)c(C(F)(F)F)c1C(=O)Nc1ccnc(C(F)(F)F)c1 [Compound I-96]
500 to 2500 | Cn1nc(-c2cccc3[nH]ccc23)c(C(F)(F)F)c1C(=O)Nc1ccnc(C(F)(F)F)c1 [Compound I-97]
< 500 | Cn1nc(-c2cccc3ccsc23)c(C(F)(F)F)c1C(=O)Nc1ccnc(C(F)(F)F)c1 [Compound I-99]
500 to 2500 | Cc1csc2c(-c3nn(C)c(C(=O)Nc4ccnc(C(F)(F)F)c4)c3C(F)(F)F)cccc12 [Compound I-101]
2500 to 10000 | Cn1nc(-c2cccn3nnnc23)c(C(F)(F)F)c1C(=O)Nc1ccnc(C(F)(F)F)c1 [Compound I-102]
500 to 2500 | Cn1nc(-c2nccc3ccccc23)c(C(F)(F)F)c1C(=O)Nc1ccnc(C(F)(F)F)c1 [Compound I-105, 3-(isoquinolin-1-yl)-1-methyl-4-(trifluoromethyl)-N-(2-(trifluoromethyl)pyridin-4-yl)-1H-pyrazole-5-carboxamide]
< 500 | Cn1nc(-c2nccc3ccoc23)c(C(F)(F)F)c1C(=O)Nc1ccnc(C(F)(F)F)c1 [Compound I-106]
> 10000 | COCCn1cc(-c2nn(C)c(C(=O)Nc3ccnc(C(F)(F)F)c3)c2C(F)(F)F)c2ccncc21 [Compound I-108]
> 10000 | Cn1nc(-c2cccc3nnsc23)c(C(F)(F)F)c1C(=O)Nc1ccnc(C(F)(F)F)c1 [Compound I-109]
500 to 2500 | Cn1nc(-c2ccnc3c(F)cccc23)c(C(F)(F)F)c1C(=O)Nc1ccnc(C(F)(F)F)c1 [Compound I-110]
2500 to 10000 | Cn1nc(-c2cn(C)c3c(=O)[nH]ccc23)c(C(F)(F)F)c1C(=O)Nc1ccnc(C(F)(F)F)c1 [Compound I-112]
500 to 2500 | Cn1nc(-c2csc3c(=O)[nH]ccc23)c(C(F)(F)F)c1C(=O)Nc1ccnc(C(F)(F)F)c1 [Compound I-113]
500 to 2500 | Cn1nc(-c2cncc3ccn(C)c23)c(C(F)(F)F)c1C(=O)Nc1ccnc(C(F)(F)F)c1 [Compound I-114]
2500 to 10000 | Cn1nc(-c2cncc3cc[nH]c23)c(C(F)(F)F)c1C(=O)Nc1ccnc(C(F)(F)F)c1 [Compound I-115]
500 to 2500 | Cn1nc(-c2cccc3c(=O)[nH]ncc23)c(C(F)(F)F)c1C(=O)Nc1ccnc(C(F)(F)F)c1 [Compound I-116]
500 to 2500 | Cn1nc(-c2cccc3nc(N)sc23)c(C(F)(F)F)c1C(=O)Nc1ccnc(C(F)(F)F)c1 [Compound I-117]
2500 to 10000 | Cn1nc(-c2cncc3nccn23)c(C(F)(F)F)c1C(=O)Nc1ccnc(C(F)(F)F)c1 [Compound I-119]
500 to 2500 | Cn1nc(-c2c[nH]c3cnccc23)c(C(F)(F)F)c1C(=O)Nc1ccnc(C(F)(F)F)c1 [Compound I-124]
